Experimental findings from EP2650284A1, “Heterocyclic derivatives as metabotropic glutamate receptor modulators” (Merz Pharma GmbH & Co. KGaA, priority 2012, dated 2013) are described below.

In experiment [1] the target is T1, mGluR5 binding site (Rattus norvegicus, UniProt P31424).
T1 construct: from tissue; host or cells: cortex of adult male Sprague-Dawley rats, membrane preparation
Put plainly: [3H]-M-MPEP displacement studies on rat cortical membranes. To be noted: Table A3, [3H]-M-MPEP 2 nM, 4°C for 1 h, median, read-out: Ki (MMPEP). On the procedure: Tissue preparation is performed according to Foster & Wong (Br. J. Pharmacol., 1987, 91, 403-409) with some modifications. Anaesthetised male Sprague-Dawley rats (200-250 g, Janvier, Le Genest-Isle, France) are decapitated and their brains are removed rapidly. The cortex is dissected out and processed as described by Parsons, et al. (J. Pharmacol. Exp. Ther., 1997, 283(3): 1264-1275). For isolation of the cell membranes, the cortices are homogenized in 20 volumes of ice-cold 0.32 M sucrose (Sigma-Aldrich, Taufkirchen, Germany) using a glass-Teflon homogenizer. The homogenate is centrifuged at 1000 x g for 10 minutes, the pellet is discarded and the supernatant centrifuged at 20,000 x g for 20 minutes. The resulting pellet is resuspended in 20 volumes of distilled water and centrifuged for 20 minutes at 8000 x g. The supernatant and the buffy coat are then centrifuged six times (48,000 x g for 20 minutes) in the presence of 5 mM Tris-HCl, pH 7.5. All centrifugation steps are carried out at 4°C. After resuspension in 5 volumes of 5 mM Tris-HCl, pH 7.5, the membrane suspension is frozen rapidly at -80°C.
On the day of assay, the membrane suspensions are thawed, centrifuged (48,000 x g for 20 minutes) and then resuspended in 50 mM Tris-HCl, pH 7.5 (assay buffer). The amount of protein in the final membrane preparation is determined according to the method of Lowry, et al. (J. Biol. Chem., 1951, 193, 256-275). The final concentration used for our studies is 400 µg / ml.
The Tecan robotic system designed for binding assays is loaded with the membrane solution, a 96 well stock plate containing the solutions for bound control (buffer/DMSO 10%), unlabeled MPEP (10 µM) for evaluation of non-specific binding, all compounds to be tested (at 20-fold concentrations), various empty 96-well plates for dilutions and the final assay plates, as well as a 96-well plate filled with the radioligand.
Before performing displacement studies, saturation experiments are performed to determine the equilibrium dissociation constant (Kd, Cheng and Prussoff, Biochem. Pharmacol., 1973, 22: 3099-3108) of [^3H]-M-MPEP, which is a parameter for the affinity of the radioligand to the binding site. On the basis of the saturation experiments, a final [^3H]-M-MPEP concentration of 2 nM was selected.
Firstly, the assay plates are loaded with membrane solution and are shaken at 4°C. The mother plates were then prepared by pipetting the compounds (n = 5) into assay buffer/10% DMSO to obtain the desired final concentrations. After transferring radioligand into the assay plates, the compounds are added (including the non-specific binding control containing MPEP). The final DMSO concentration is always 1 %. The assay plates are incubated and shaken at 4°C for 1 h, before the mixture is exhausted as rapidly as possible via a vacuum manifold using the Multiscreen HTS glass fibre (type B) high flow filter plates (Millipore, Schwalbach, Germany) under a constant vacuum of 450 mbar. The membranes are washed four times with cold assay buffer (100 µL). 50 µL of Ultima Gold scintillation cocktail (PerkinElmer) is added to the wet filter plates and incubated at rt overnight before counting the disintegration per minutes using a liquid scintillation counter (MicroBeta, PerkinElmer).
For the evaluation of the test compound binding affinity to the mGluR5 binding site and its potency to displace [^3H]-M-MPEP, the measured radioactivity of the radioligand alone was set as 100% bound control and the non-specific binding of the radioligand represented the 0% control. The residual radioactivity after displacement of the test compound was then corrected with respect to the set controls. Data are given as median IC50 and Ki, respectively.

Experiment [2] has as its target T2, human metabotropic glutamate receptor mGluR5 (Homo sapiens, UniProt P41594).
T2 construct: expressed in transfected cells; host or cells: CHO-K1 (h5CHO), IPTG-inducible
Put plainly: Cytosolic calcium studies with stably transfected cells (h5CHO), functional assay of mGluR5 receptors. The experiment is classed as cell-based. Particulars: for h left shift: h5CHO cells; for EC50: positive modulators, h5CHO cells preincubated with modulator, stimulated by an EC20 concentration of L-glutamate, read-out: hEC50. The method, boiled down: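 IPTG-induced h5CHO (CHO-K1 expressing human mGluR5) loaded with calcium dye; compounds (0.5% DMSO) added 5 min before agonist. NAM IC50 against L-quisqualate at ~EC80; PAM EC50 with EC20 L-glutamate. FLIPR fluorescence, max-minus-min, % of maximal response, logistic fit.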

Setting [3] is: Table A3 (SAMs / very weak PAMs), agonist EC50 shift with 10 µM modulator or vehicle.
[4] abbreviates: Table A1, left shift of agonist EC50, dose response curves in the presence of 10 µM modulator or vehicle.

T1 sequence (P31424 21-1203): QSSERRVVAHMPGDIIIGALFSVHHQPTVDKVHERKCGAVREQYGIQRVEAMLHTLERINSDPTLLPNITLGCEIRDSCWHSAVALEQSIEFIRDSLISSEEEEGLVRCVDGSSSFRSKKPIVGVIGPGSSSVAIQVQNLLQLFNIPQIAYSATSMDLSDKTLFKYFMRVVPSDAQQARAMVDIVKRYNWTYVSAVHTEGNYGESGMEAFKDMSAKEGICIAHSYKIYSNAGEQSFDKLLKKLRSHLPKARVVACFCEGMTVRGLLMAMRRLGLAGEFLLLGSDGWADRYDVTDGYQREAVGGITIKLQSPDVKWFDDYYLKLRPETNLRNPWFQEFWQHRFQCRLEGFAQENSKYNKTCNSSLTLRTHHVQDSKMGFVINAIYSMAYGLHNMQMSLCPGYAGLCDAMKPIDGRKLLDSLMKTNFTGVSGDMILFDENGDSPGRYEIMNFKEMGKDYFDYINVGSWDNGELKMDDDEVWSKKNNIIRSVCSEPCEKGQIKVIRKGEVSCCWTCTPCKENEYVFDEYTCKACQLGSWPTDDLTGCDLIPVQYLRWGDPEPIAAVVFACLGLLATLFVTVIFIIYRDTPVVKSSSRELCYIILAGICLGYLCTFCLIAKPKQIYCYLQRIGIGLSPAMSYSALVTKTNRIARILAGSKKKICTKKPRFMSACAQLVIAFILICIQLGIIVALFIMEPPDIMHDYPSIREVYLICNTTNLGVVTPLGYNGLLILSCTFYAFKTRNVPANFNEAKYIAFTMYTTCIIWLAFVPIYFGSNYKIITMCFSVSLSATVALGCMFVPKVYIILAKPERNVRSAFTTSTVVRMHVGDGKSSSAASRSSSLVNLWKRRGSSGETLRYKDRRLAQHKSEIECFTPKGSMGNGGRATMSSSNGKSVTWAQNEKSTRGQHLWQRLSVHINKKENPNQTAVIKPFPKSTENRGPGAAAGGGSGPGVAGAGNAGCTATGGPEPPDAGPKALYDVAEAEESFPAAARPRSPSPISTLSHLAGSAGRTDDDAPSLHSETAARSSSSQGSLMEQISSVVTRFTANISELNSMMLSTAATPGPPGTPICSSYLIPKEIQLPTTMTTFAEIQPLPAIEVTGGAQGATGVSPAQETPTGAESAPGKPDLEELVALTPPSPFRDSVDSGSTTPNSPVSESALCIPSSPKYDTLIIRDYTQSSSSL
T2 sequence (P41594 21-1212): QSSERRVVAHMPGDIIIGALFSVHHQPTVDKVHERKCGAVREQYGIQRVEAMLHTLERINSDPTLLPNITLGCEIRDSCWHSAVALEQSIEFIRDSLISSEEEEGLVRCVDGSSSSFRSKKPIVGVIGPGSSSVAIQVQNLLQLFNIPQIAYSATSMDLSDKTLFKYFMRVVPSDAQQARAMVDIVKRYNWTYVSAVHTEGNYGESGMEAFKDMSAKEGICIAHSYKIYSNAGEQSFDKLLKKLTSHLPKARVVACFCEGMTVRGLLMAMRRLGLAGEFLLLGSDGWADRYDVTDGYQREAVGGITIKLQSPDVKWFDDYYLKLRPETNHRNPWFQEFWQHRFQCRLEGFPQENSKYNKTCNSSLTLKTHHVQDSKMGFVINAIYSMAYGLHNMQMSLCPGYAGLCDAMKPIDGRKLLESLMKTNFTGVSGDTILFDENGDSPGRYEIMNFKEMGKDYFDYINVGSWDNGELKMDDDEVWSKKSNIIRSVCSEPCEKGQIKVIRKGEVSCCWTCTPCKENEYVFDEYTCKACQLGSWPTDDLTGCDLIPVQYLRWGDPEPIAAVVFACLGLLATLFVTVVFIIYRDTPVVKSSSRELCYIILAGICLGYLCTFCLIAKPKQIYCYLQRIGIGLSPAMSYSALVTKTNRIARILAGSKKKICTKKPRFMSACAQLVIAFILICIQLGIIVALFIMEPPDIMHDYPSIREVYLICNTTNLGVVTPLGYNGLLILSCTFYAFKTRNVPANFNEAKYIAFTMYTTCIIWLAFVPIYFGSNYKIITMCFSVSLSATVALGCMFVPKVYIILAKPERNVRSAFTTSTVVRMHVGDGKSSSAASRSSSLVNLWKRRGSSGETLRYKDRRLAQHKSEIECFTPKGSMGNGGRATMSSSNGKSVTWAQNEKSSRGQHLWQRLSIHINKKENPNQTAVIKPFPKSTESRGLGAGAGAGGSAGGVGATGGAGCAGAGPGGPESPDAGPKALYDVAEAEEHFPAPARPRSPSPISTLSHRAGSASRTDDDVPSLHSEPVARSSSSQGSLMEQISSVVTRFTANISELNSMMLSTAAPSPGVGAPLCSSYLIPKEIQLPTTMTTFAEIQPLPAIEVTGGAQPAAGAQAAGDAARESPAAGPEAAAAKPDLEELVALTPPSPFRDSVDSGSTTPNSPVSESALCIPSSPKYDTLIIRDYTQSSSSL

`CC(C)C(=O)N1CCc2ncc(C#Cc3ccccc3)cc2C1` [Example 33, 2-Methyl-1-(3-(phenylethynyl)-7,8-dihydro-1,6-naphthyridin-6(5H)-yl)propan-1-one]: the Ki (as a rule, the dissociation constant of the complex between target and ligand, obtained from inhibition or displacement) in experiment [1] is 395 nM. The h left shift in experiment [2] (setting [3]) was 1.4-fold.

On to `CCCN1CC2(CCCc3ncc(C#Cc4cccc(C)c4)cc32)OC1=O` (racemic) [Example 64, (rac)-3-Propyl-3'-(m-tolylethynyl)-7',8'-dihydro-6'H-spiro[oxazolidine-5,5'-quinolin]-2-one], for which, in experiment [1], the Ki came to 399 nM. Besides, the h left shift in experiment [2] (setting [3]) was 1.2-fold.

Regarding `CCOC(=O)N1CCc2ncc(C#Cc3ccccc3)cc2C1` [Example 40, Ethyl 3-(phenylethynyl)-7,8-dihydro-1,6-naphthyridine-6(5H)-carboxylate], the Ki in experiment [1] came out at 56.5 nM. Besides, the h left shift in experiment [2] (setting [3]) is on record as 1.3-fold.

For `CCCN1CC2(CCCc3ncc(C#Cc4cccc(F)c4)cc32)OC1=O` (racemic) [Example 66, (rac)-3'-((3-Fluorophenyl)ethynyl)-3-propyl-7',8'-dihydro-6'H-spiro[oxazolidine-5,5'-quinolin]-2-one], in experiment [1], the Ki came to 857 nM. Besides, the h left shift in experiment [2] (setting [3]) is listed as 1.6-fold.

As for `COC(=O)N1CC[C@H]2CCc3ncc(C#Cc4ccccc4)cc3[C@H]21` (racemic) [Example 29, (rac)-cis-Methyl 8-(phenylethynyl)-2,3,3a,4,5,9b-hexahydro-1H-pyrrolo[2,3-f]quinoline-1-carboxylate], the Ki in experiment [1] was determined as 289 nM. Further, the h left shift in experiment [2] (setting [3]) is on record as 1.3-fold.

`CCCN1CCO[C@@H]2c3cc(C#Cc4ccccc4)cnc3CC[C@@H]21` (single isomer, unassigned) [Example 17, cis-9-(Phenylethynyl)-4-propyl-3,4,4a,5,6,10b-hexahydro-2H-[1,4]oxazino[2,3-f]quinoline]: the Ki in experiment [1] is 3620 nM. The h left shift in experiment [2] (setting [4]) and in experiment [2] (setting [3]) was 2.3-fold throughout. The EC50 in experiment [2] (Table A1) amounted to 388 nM.

Consider `CCCN1CCO[C@@H]2c3cc(C#Cc4cccc(C)c4)cnc3CC[C@@H]21` (racemic) [Example 21, (rac)-cis-4-Propyl-9-(m-tolylethynyl)-3,4,4a,5,6,10b-hexahydro-2H-[1,4]oxazino[2,3-f]quinoline], for which, in experiment [1], the Ki was 1720 nM. Further, the h left shift in experiment [2] (setting [3]) was 1.3-fold.

Turning to `COC1CCCc2ncc(C#Cc3ccccc3)cc21` (single isomer, unassigned) [Example 2, 5-Methoxy-3-(phenylethynyl)-5,6,7,8-tetrahydroquinoline], the inhibition constant Ki in experiment [1] was 204 nM. Further, the h left shift in experiment [2] (setting [4]) and in experiment [2] (setting [3]) was 2.3-fold each time. Moreover, the EC50 in experiment [2] (Table A1) worked out at 20.9 nM.
